Experimental data published in patent US4882326A, “Piperidine compounds and pharmaceutical uses thereof” (Yoshitomi Pharmaceutical Industries, Ltd., priority 1987, dated 1989).

How the values were obtained:
[1] = target: T1, angiotensin I converting enzyme (Cavia porcellus, UniProt H0UWL7); assay: Inhibitory effect on angiotensin I-induced constriction in isolated guinea pig ileum (indirect inhibition of angiotensin I converting enzyme); assay type: cell-based; conditions: angiotensin I 10^-8 M, 37° C.
T1 construct: isolated guinea pig ileum preparation; from tissue; host or cells: isolated guinea pig ileum
T1 sequence (H0UWL7 33-1302): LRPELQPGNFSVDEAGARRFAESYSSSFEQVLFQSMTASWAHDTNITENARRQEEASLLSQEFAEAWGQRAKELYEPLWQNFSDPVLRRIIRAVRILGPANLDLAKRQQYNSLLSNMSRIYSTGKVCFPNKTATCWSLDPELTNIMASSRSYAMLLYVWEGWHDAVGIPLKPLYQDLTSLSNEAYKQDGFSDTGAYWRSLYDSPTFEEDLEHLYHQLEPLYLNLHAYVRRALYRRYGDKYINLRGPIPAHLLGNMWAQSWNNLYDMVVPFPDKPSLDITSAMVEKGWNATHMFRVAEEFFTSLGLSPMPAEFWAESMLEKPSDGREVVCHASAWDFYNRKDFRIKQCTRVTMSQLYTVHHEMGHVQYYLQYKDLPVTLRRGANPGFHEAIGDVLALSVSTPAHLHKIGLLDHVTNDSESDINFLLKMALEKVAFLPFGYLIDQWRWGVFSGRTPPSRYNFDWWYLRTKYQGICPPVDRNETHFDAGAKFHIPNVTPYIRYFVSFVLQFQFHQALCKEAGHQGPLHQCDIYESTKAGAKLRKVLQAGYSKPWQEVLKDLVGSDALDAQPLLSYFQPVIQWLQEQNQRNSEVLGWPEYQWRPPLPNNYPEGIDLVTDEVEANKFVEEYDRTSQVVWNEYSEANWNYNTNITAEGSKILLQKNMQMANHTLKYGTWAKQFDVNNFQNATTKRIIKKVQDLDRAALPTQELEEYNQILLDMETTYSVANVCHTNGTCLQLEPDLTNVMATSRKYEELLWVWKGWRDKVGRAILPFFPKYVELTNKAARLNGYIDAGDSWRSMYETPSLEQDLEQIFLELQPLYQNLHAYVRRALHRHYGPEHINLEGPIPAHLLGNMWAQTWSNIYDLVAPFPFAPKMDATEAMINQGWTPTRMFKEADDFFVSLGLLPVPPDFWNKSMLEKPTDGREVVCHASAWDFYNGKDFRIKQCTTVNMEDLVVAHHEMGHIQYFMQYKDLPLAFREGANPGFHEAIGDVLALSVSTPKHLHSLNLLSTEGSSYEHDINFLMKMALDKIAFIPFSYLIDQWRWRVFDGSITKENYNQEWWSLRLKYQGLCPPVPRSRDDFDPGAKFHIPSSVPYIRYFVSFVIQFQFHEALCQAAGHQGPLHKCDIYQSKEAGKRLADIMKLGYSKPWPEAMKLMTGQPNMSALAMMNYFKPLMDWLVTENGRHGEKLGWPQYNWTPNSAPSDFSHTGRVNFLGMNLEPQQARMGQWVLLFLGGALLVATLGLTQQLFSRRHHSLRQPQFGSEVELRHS
Description: Experiment 1: Inhibitory effect on angiotensin I-induced constriction in isolated guinea pig ileum
According to the method of Goldberg et al (J. Pharmacol. Exp. Ther., vol. 204, No. 2, p. 271, 1977), the inhibitory effect on angiotensin I converting enzyme was indirectly examined as an antagonistic activity on angiotensin I-induced constriction in isolated guinea pig ileum preparation. Guinea pig ileum preparations, in the presence of 1 g load, were suspended in Magnus bath filled with Kreb's solution containing atropine and maintained at 37° C. by warming, and then bubbled with a mixed gas (95%O2 +5%CO2). Angiotensin I (10^-8 M)-induced constrictions were measured with a recorder through a force displacement transducer (Nippon Denki San-ei, 45169A). Inhibitory rates of the test compounds were indicated on a graph and the rate of 50% inhibition (IC50) was calculated.

[2] = tested on: angiotensin I-induced pressor response; assay: Effect on angiotensin I-induced pressor response in rats; assay type: in vivo, Wistar male rats; conditions: 10 mg/kg, p.o.; for Inhibitory rate (%) of pressor response to angiotensin I at each hour: angiotensin I 300 ng/kg i.v., mean value±standard error
Protocol: Experiment 2: Effect on angiotensin I-induced pressor response in rats
Groups of 10 Wistar male rats weighing about 200 g were implanted with a catheter into the left carotid artery and femoral vein under ether anesthesia. More than 24 hours after operation, mean blood pressure was measured from the carotid artery with a pressure transducer (Nippon Denki San-ei, 142 type). Angiotensin I (300 ng/kg) was injected to the left femoral vein through catheter to induce pressor response. Then 10 mg/kg of the test compounds, suspended in 0.5% methylcellulose solution, were given orally. At every hour between 1 to 10 hours, and 24 hours after the administration, the pressor response was examined by the injection of angiotensin I. The inhibitory rate (%) against the pressor responses was determined and the results were summarized in Table 1. The values in the Table represent "mean value±standard error".

| Compound | IC50 [1] [nM] | Inhibitory rate (%) of pressor response to angiotensin I at each hour ([2]; 1 hour) [%] | Inhibitory rate (%) of pressor response to angiotensin I at each hour ([2]; 2 hours) [%] | Inhibitory rate (%) of pressor response to angiotensin I at each hour ([2]; 3 hours) [%] | Inhibitory rate (%) of pressor response to angiotensin I at each hour ([2]; 4 hours) [%] | Inhibitory rate (%) of pressor response to angiotensin I at each hour ([2]; 5 hours) [%] | Inhibitory rate (%) of pressor response to angiotensin I at each hour ([2]; 6 hours) [%] | Inhibitory rate (%) of pressor response to angiotensin I at each hour ([2]; 7 hours) [%] | Inhibitory rate (%) of pressor response to angiotensin I at each hour ([2]; 8 hours) [%] | Inhibitory rate (%) of pressor response to angiotensin I at each hour ([2]; 9 hours) [%] | Inhibitory rate (%) of pressor response to angiotensin I at each hour ([2]; 10 hours) [%] | Inhibitory rate (%) of pressor response to angiotensin I at each hour ([2]; 24 hours) [%] | inhibitory action against the angiotensin I-induced pressor response, strength and duration vs CV-5975 ([2]; rats, comparison in words) |
| --- | --- | --- | --- | --- | --- | --- | --- | --- | --- | --- | --- | --- | --- |
| O=C(O)CN1C(=O)[C@@H](N[C@@H](CCCCC2CCNCC2)C(=O)O)CSc2ccccc21 [CV-5975, 3(R)-[1(S)-carboxy-5-(4-piperidyl)pentyl]amino-4-oxo-2,3,4,5-tetrahydro-1,5-benzothiazepine-5-acetic acid, reference compound] | 3.5 | -95 ± 3 | -95 ± 3 | -89 ± 7 | -85 ± 7 | -82 ± 8 | -89 ± 6 | -86 ± 6 | -80 ± 7 | -84 ± 7 | -75 ± 9 | -45 ± 10 | – |
| O.O=C(O)CN1C(=O)C(N[C@@H](CSCCC2CCNCC2)C(=O)O)CCc2ccccc21 (stereo partly drawn) [Example 7, 3-[1(R)-carboxy-2-{2-(4-piperidyl)ethylthio}ethyl]amino-2-oxo-2,3,4,5-tetrahydro-1H-1-benzazepine-1-acetic acid monohydrate] | 1.6 | -96 ± 2 | -100 ± 0 | -94 ± 5 | -97 ± 3 | -100 ± 0 | -100 ± 0 | -100 ± 0 | -98 ± 2 | -100 ± 0 | -90 ± 6 | -77 ± 10 | exhibits stronger inhibitory action against the angiotensin I-induced pressor response and more long-lasting effect than C-5975 |
